From patent publication US11957783B2, “Topical immunosensitizers to treat viral and fungal infections” (Squarex, LLC, priority 2018, dated 2024)
Several values for one entry are separate records, joined by “and”; a condition that tells them apart may be missing. Identical values can stand only once. Marks after values point to notes of the source that are not given here.

Test system: herpes labialis outbreak
Assay: Clinical trial of herpes labialis outbreaks after sensitization dose (Example 2)
Type: in vivo, human
Details: for Average days to first outbreak after the sensitization dose: 120 days used if no outbreak in 120 days
Method: The median time to the next outbreak for the placebo group was 40 days vs more than 122 days for the 2.0% SADBE group, which difference was highly significant (P=0.009) (Palli 2017). SADBE is a topical immunosensitizer that induces a delayed-type hypersensitivity response and is commonly used in the treatment of verruca vulgaris and alopecia areata (Lee 1999; Silverberg 2000, Rokhshar 1998). […]
(p<0.05). The average days to the first outbreak after the sensitization dose was also measured. […] The A: placebo, 0% SADBE in DMSO.

CCCCOc1c(OCCCC)c(=O)c1=O [2% SADBE]
Persons having an outbreak within X days after the sensitization dose (30 days, group B): 2 (of 16)
Persons having an outbreak within X days after the sensitization dose (30 days, group C): 3 (of 15)
Persons having an outbreak within X days after the sensitization dose (30 days, groups B + C): 5 (of 31)
Persons having an outbreak within X days after the sensitization dose (45 days, group B): 4 (of 16)
Persons having an outbreak within X days after the sensitization dose (45 days, group C): 4 (of 15)
Persons having an outbreak within X days after the sensitization dose (45 days, groups B + C): 8 (of 31)
Persons having an outbreak within X days after the sensitization dose (60 days, group B): 5 (of 16)
Persons having an outbreak within X days after the sensitization dose (60 days, group C): 4 (of 15)
Persons having an outbreak within X days after the sensitization dose (60 days, groups B + C): 9 (of 31)
Persons having an outbreak within X days after the sensitization dose (<120 days, group B): 6 (of 16)
Persons having an outbreak within X days after the sensitization dose (<120 days, group C): 4 (of 15)
Persons having an outbreak within X days after the sensitization dose (<120 days, groups B + C): 10 (of 31)
Days to first new outbreak after sensitization dose on upper arm (each patient): 18 days and 34 days and 37 days and 41 days and 50 days and 80 days and 91 days and >120 days (19×) and 14 days (2×) and 15 days
Average days to first outbreak after the sensitization dose (group B): 88.5 days
Average days to first outbreak after the sensitization dose (group C): 94.7 days
Average days to first outbreak after the sensitization dose (groups B + C): 91.5* days
Days to first new outbreak after sensitization dose on upper arm, median (treatment group): > 120 days
